Values quoted from earlier work as cited in patent publication US20090275559A1, “Chronotherapeutic formulations of modified-release calcium channel blocker anti-hypertensive drugs in combination with other anti-hypertensive drugs for 24-hour optimal treatment of hypertension, nocturnal hypertension, and/or hypertension with angina” (Blue Note Pharmaceuticals, Inc., priority 2008, published 2009).

Tests used:
[1] = low pHs (0.1 N HCl)
[2] = extensive first-pass metabolism in the liver

In the case of `CCCCC1=NC2(CCCC2)C(=O)N1Cc1ccc(-c2ccccc2-c2nnn[nH]2)cc1` [Irbesartan], the water solubility [1] is given as “low”.

For `COc1ccc([C@@H]2Sc3ccccc3N(CCN(C)C)C(=O)[C@@H]2OC(C)=O)cc1` [diltiazem], the plasma half-life [2] is listed as 2 to 6 h.
